The source made the active and inactive calls. The rule behind the calls is not given here.
Legend:
[1] = target: Aurora kinase B (Homo sapiens) (UniProt Q96GD4); assay: Inhibition of Aurora kinase B in human RPE-MYC cells transfected with BCL2 assessed as inhibition of histone H3 phosphorylation at Ser10 residue at MEC for polyploidy measured after 6 hrs by immunofluorescence staining based analysis; assay type: cell-based
[2] = target: Aurora kinase B (Homo sapiens) (UniProt Q96GD4); assay: Disruption of AURKB localization in human RPE-MYC cells transfected with BCL2 assessed as loss of localization of MKLP1 at the spindle-midzone by immunofluorescence staining based analysis; assay type: cell-based
[3] = target: Aurora kinase B (Homo sapiens) (UniProt Q96GD4); assay: Disruption of AURKB localization in human RPE-MYC cells transfected with BCL2 assessed as loss of localization of PLK1 at the spindle-midzone by immunofluorescence staining based analysis; assay type: cell-based
[4] = target: Aurora kinase B (Homo sapiens) (UniProt Q96GD4); assay: Disruption of AURKB localization in human RPE-MYC transfected with GFP-H2B assessed as minimal effective concentration that induces mitotic arrest, polyploidy, cell death and cell number reduction by MIPS assay; assay type: cell-based
[5] = target: Aurora kinase B (Homo sapiens) (UniProt Q96GD4); assay: Disruption of AURKB localization in human RPE-MYC cells transfected with BCL2 assessed as loss of localization of microtubules at the spindle-midzone by immunofluorescence staining based analysis; assay type: cell-based
[6] = target: Aurora kinase B (Homo sapiens) (UniProt Q96GD4); assay: Disruption of AURKB localization in human RPE-MYC cells transfected with BCL2 assessed as mislocalization of AURKB at the spindle zone in anaphase cells by immunofluorescence staining based analysis; assay type: cell-based
[7] = target: T1, Aurora kinase A (Homo sapiens) (UniProt O14965); assay: Inhibition of Aurora kinase A in human RPE-MYC cells transfected with BCL2 assessed as inhibition of protein autophosphorylation at Thr288 residue by immunofluorescence staining based analysis; assay type: cell-based
T1 sequence (whole entry): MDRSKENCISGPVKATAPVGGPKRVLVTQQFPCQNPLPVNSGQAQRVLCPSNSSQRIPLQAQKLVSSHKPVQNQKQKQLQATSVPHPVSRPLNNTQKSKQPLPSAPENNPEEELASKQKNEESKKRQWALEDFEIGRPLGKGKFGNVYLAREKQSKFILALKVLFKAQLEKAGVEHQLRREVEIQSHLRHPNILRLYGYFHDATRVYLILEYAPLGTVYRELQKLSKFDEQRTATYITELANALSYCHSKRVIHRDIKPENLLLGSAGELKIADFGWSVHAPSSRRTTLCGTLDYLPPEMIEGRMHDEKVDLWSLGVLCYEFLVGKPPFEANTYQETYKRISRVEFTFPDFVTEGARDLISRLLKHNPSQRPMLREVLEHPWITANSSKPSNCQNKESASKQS

[8] = target: Aurora kinase B (Homo sapiens) (UniProt Q96GD4); assay: Inhibition of Aurora kinase B in human RPE-MYC cells transfected with BCL2 assessed as inhibition of histone H3 phosphorylation at Ser10 residue by immunofluorescence staining based analysis; assay type: cell-based
[9] = target: Aurora kinase B (Homo sapiens) (UniProt Q96GD4); assay: Disruption of AURKB localization in human RPE-MYC cells transfected with BCL2 assessed as loss of localization of MKLP1 at the spindle-midzone at 40 nM measured after 6 hrs by immunofluorescence staining based analysis; assay type: cell-based
[10] = target: Aurora kinase B (Homo sapiens) (UniProt Q96GD4); assay: Inhibition of Aurora kinase B (unknown origin)
[11] = system: NCI-H23; assay: Antitumor activity against human NCI-H23 cells xenografted in BALB/c mouse assessed as suppression of tumor growth at 50 mg/kg, po bid for 7 days; assay type: functional, organism-based; conditions: time 7.0 day
[12] = target: Aurora kinase B (Homo sapiens) (UniProt Q96GD4); assay: Disruption of AURKB localization in human RPE-MYC cells transfected with BCL2 assessed as localization of PLK1 at mitotic centrosomes at 40 nM measured after 6 hrs by immunofluorescence staining based analysis; assay type: cell-based
[13] = target: Aurora kinase B (Homo sapiens) (UniProt Q96GD4); assay: Disruption of AURKB localization in human RPE-MYC cells transfected with BCL2 assessed as mislocalization of AURKB at the spindle zone in anaphase cells at 40 nM measured after 6 hrs by immunofluorescence staining based analysis; assay type: cell-based
[14] = target: Aurora kinase B (Homo sapiens) (UniProt Q96GD4); assay: Disruption of AURKB localization in human RPE-MYC cells transfected with BCL2 assessed as loss of localization of microtubules at the spindle-midzone at 40 nM measured after 6 hrs by immunofluorescence staining based analysis; assay type: cell-based
[15] = system: Mus musculus; assay: Induction of mitotic arrest in BALB/c mouse xenografted with human NCI-H23 cells assessed as increase in mitotic index in tumor at 50 mg/kg, po bid for 7 days by immunohistochemical staining based analysis; assay type: functional, organism-based; conditions: time 7.0 day
[16] = system: Mus musculus; assay: Induction of apoptosis in BALB/c mouse xenografted with human NCI-H23 cells assessed as increase in caspase-3 activation in tumor at 50 mg/kg, po bid for 7 days by immunohistochemical staining based analysis; assay type: functional, organism-based; conditions: time 7.0 day
[17] = target: Aurora kinase B (Homo sapiens) (UniProt Q96GD4); assay: Disruption of AURKB localization in human RPE-MYC cells transfected with BCL2 assessed as localization of AURKB on kinetochore at 40 nM measured after 6 hrs by immunofluorescence staining based analysis; assay type: cell-based
[18] = target: Aurora kinase B (Homo sapiens) (UniProt Q96GD4); assay: Disruption of AURKB localization in human RPE-MYC cells transfected with BCL2 assessed as localization of PLK1 at spindle poles at 40 nM measured after 6 hrs by immunofluorescence staining based analysis; assay type: cell-based
[19] = target: Aurora kinase B (Homo sapiens) (UniProt Q96GD4); assay: Inhibition of Aurora kinase B in human RPE-MYC cells transfected with BCL2 assessed as inhibition of histone H3 phosphorylation at Ser10 residue at highest concentration measured after 6 hrs by immunofluorescence staining based analysis; assay type: cell-based
[20] = system: Phosphatidylinositol 4,5-bisphosphate 3-kinase catalytic subunit alpha isoform (Homo sapiens), P42336 [E545K]; assay: Inhibition of PI3KCA E545K mutant (unknown origin)
Phosphatidylinositol 4,5-bisphosphate 3-kinase catalytic subunit alpha isoform (Homo sapiens), P42336 [E545K], sequence (P42336 whole entry E545K, canonical isoform): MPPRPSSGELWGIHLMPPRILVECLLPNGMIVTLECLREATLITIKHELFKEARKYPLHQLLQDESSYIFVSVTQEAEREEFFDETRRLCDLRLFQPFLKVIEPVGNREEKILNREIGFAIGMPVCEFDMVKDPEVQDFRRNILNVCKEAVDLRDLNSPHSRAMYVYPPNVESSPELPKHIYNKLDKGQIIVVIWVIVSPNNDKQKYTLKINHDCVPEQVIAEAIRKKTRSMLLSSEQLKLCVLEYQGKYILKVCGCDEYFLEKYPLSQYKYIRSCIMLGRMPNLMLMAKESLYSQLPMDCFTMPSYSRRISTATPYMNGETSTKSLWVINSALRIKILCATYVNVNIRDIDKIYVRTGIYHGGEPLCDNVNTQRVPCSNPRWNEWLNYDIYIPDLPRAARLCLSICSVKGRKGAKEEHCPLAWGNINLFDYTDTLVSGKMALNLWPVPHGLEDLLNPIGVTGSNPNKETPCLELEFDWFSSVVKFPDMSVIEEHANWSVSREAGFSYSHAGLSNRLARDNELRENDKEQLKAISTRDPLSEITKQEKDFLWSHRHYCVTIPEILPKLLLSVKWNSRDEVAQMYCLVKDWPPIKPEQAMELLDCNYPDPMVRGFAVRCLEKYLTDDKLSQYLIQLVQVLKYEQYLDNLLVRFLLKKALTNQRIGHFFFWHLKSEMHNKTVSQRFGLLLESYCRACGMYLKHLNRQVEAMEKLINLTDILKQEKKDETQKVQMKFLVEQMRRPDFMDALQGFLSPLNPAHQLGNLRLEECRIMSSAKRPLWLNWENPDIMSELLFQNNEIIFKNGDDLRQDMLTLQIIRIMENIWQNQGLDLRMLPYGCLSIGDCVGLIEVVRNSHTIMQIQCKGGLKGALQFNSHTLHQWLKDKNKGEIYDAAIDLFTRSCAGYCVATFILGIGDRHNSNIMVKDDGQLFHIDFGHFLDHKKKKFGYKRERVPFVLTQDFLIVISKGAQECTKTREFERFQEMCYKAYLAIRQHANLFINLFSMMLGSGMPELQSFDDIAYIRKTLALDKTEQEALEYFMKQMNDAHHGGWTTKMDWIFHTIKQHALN

[21] = Cmax in BALB/c mouse at 50 mg/kg, po compound formulated in PEG300 and administered as single dose by LC-MS/MS analysis; assay type: ADME, organism-based; set-up: dose 50 mg/kg, route po; conditions: in vivo
[22] = target: Aurora kinase B (Homo sapiens) (UniProt Q96GD4); assay: Disruption of AURKB localization in human RPE-MYC cells transfected with BCL2 assessed as loss of localization of PLK1 at the spindle-midzone at 40 nM measured after 6 hrs by immunofluorescence staining based analysis; assay type: cell-based
[23] = system: NCI-H23; assay: Antitumor activity against human NCI-H23 cells xenografted in BALB/c mouse assessed as reduction in cellular density in tumor at 50 mg/kg, po bid for 7 days by Hematoxylin and Eosin staining based analysis; assay type: functional, organism-based; conditions: time 7.0 day
[24] = Dose normalized AUC (0 to 6 hrs) in BALB/c mouse at 50 mg/kg, po compound formulated in PEG300 and administered as single dose by LC-MS/MS analysis; assay type: ADME, organism-based; conditions: in vivo
[25] = target: Aurora kinase B (Homo sapiens) (UniProt Q96GD4); assay: Inhibition of Aurora kinase B in human RPE-MYC cells transfected with BCL2 assessed as inhibition of histone H3 phosphorylation at Ser10 residue at 40 nM measured after 6 hrs by immunofluorescence staining based analysis; assay type: cell-based
[26] = target: T1, Aurora kinase A (Homo sapiens); assay: Inhibition of Aurora kinase A (unknown origin)
[27] = target: Aurora kinase B (Homo sapiens) (UniProt Q96GD4); assay: Inhibition of Aurora kinase B in human RPE-MYC cells transfected with BCL2 assessed as inhibition of histone H3 phosphorylation at Ser10 residue at >5 nM measured after 6 hrs by immunofluorescence staining based analysis; assay type: cell-based
[28] = target: Aurora kinase B (Homo sapiens) (UniProt Q96GD4); assay: Inhibition of Aurora kinase B in human NCI-H23 cells transfected with BCL2 assessed as inhibition of histone H3 phosphorylation at Ser10 residue at 2.5 nM measured after 6 hrs by immunofluorescence staining based analysis; assay type: cell-based
[29] = target: Aurora kinase B (Homo sapiens) (UniProt Q96GD4); assay: Disruption of AURKB localization during anaphase in human NCI-H23 cells at 2.5 nM measured after 24 hrs by immunofluorescence staining based analysis; assay type: cell-based
[30] = target: Aurora kinase B (Homo sapiens) (UniProt Q96GD4); assay: Disruption of AURKB localization in human RPE-MYC cells transfected with BCL2 assessed as misaligned chromosomes in metaphase-like cells at 2.5 nM measured after 24 hrs by immunofluorescence staining based analysis; assay type: cell-based
[31] = target: Aurora kinase B (Homo sapiens) (UniProt Q96GD4); assay: Disruption of AURKB localization in human RPE-MYC cells transfected with BCL2 assessed as accumulation of polyploid cells with multilobular nuclei at 2.5 nM measured after 48 hrs by immunofluorescence staining based analysis; assay type: cell-based
[32] = target: Aurora kinase B (Homo sapiens) (UniProt Q96GD4); assay: Inhibition of Aurora kinase B in human RPE-MYC cells transfected with BCL2 assessed as inhibition of histone H3 phosphorylation at Ser10 residue at 2.5 nM measured after 6 hrs by immunofluorescence staining based analysis; assay type: cell-based
[33] = target: T1, Aurora kinase A (Homo sapiens); assay: Inhibition of Aurora kinase A in human RPE-MYC cells transfected with BCL2 assessed as inhibition of protein autophosphorylation at Thr288 residue at 2.5 nM measured after 6 hrs by immunofluorescence staining based analysis; assay type: cell-based
[34] = target: T1, Aurora kinase A (Homo sapiens); assay: Inhibition of Aurora kinase A in human NCI-H23 cells transfected with BCL2 assessed as inhibition of protein autophosphorylation at Thr288 residue at 2.5 nM measured after 6 hrs by immunofluorescence staining based analysis; assay type: cell-based
[35] = target: T1, Aurora kinase A (Homo sapiens); assay: Inhibition of Aurora kinase A in human RPE-MYC cells transfected with BCL2 assessed as inhibition of protein autophosphorylation at Thr288 residue at 160 nM measured after 6 hrs by immunofluorescence staining based analysis; assay type: cell-based
[36] = Induction of mitotic arrest in human RPE-MYC cells transfected with BCL2 assessed as mitotic index at 2.5 nM measured after 24 hrs by DAPI staining based bright field microscopic analysis (reference value: 3.5%); assay type: functional
[37] = target: Aurora kinase B (Homo sapiens) (UniProt Q96GD4); assay: Disruption of AURKB localization in human RPE-MYC cells transfected with BCL2 assessed as lagging chromosomes in anaphase cells at 2.5 nM measured after 24 hrs by immunofluorescence staining based analysis; assay type: cell-based

Aurora kinase B (Homo sapiens), sequence (Q96GD4 whole entry): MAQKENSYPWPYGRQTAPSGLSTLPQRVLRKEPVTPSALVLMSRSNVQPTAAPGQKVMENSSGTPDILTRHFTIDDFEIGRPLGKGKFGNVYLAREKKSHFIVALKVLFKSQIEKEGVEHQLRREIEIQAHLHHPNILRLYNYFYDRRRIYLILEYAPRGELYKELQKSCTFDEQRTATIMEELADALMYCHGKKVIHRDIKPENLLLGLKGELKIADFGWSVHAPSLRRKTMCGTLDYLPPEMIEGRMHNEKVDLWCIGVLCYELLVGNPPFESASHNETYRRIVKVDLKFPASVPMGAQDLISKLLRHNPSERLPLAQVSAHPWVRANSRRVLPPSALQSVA

For COc1cc(NC(C)=O)cc(Oc2ncccc2-c2ccnc(C)c2)c1, the inhibition [1] was “inactive”, the Activity [2] was “Active” and the Activity [3] was “Active”. For the same compound, the MEC [4] was 0.07 µM, the Activity [5] was “Active” and the Activity [6] was “Active”.
For COc1cc(OC)cc(Oc2ncccc2-c2ccnc(OC)c2)c1, the inhibition [7] was “inactive”, the inhibition [8] was “inactive” and the MEC [4] was 0.07 µM.
With CNC(=O)c1cc(Oc2ncccc2-c2ccnc(OC)c2)cc(OC(F)(F)F)c1 the Activity [9] was “Active”, the inhibition [10] was “inactive” and the Activity [11] was “Active”. The Activity [12] was “inactive”, the Activity [13] was “Active” and the inhibition [1] was “Active”. For the same compound, the Activity [14] was “Active”, the Activity [15] was “Active” and the Activity [16] was “Active”. For the same compound, the Activity [17] was “inactive”, the Activity [18] was “inactive” and the inhibition [19] was under 68%. For the same compound, the MEC [4] was 0.02 µM, the inhibition [20] was “Active” and the Cmax [21] was 6.9 µM. For the same compound, the Activity [22] was “Active”, the Activity [23] was “Active” and the AUC/dose [24] was 0.35 µM·h/mg/kg. For the same compound, the inhibition [25] was “Active” and the inhibition [26] was “inactive”.
Compound COc1ccc(Oc2ncccc2-c2ccnc(N)n2)cc1 has an MEC [4] of over 20 µM.
Nc1ccc(Oc2ncccc2-c2ccnc(N)n2)cc1 gave an MEC [4] of 5 µM.
For CNC(=O)c1cc(OC)cc(Oc2ncccc2-c2ccncc2)c1, the MEC [4] was 0.47 µM.
Nc1nccc(-c2cccnc2Oc2ccccc2)n1 gave an MEC [4] of over 20 µM.
Nc1cccc(Oc2ncccc2-c2ccnc(N)n2)c1 gave an MEC [4] of 20 µM.
With COc1cc(OC)cc(Oc2ncccc2-c2ccnc(N)c2)c1 the MEC [4] was 0.28 µM.
In the case of COc1cc(OC)cc(Oc2ncccc2-c2ccncc2)c1, the MEC [4] was 0.14 µM.
With CNC(=O)c1cc(Oc2ncccc2-c2ccncc2)cc(OC(F)(F)F)c1 the MEC [4] was 0.16 µM.
Compound CNC(=O)c1cc(OC)cc(Oc2ncccc2-c2ccnc(C)c2)c1 has an MEC [4] of 0.12 µM.
Compound COc1cc(OC)cc(Oc2ncccc2-c2cccnc2)c1 has an MEC [4] of 0.91 µM.
For Cc1csc(-c2nnc(Nc3ccc(Oc4ncccc4-c4ccnc(N)n4)cc3)c3ccccc23)c1 [AMG-900], the inhibition [27] was “Active”, the inhibition [28] was “inactive” and the Activity [29] was “Active”. The Activity [30] was “Active”, the Activity [31] was “Active” and the inhibition [32] was “inactive”. For the same compound, the inhibition [33] was “inactive”, the inhibition [34] was “inactive” and the inhibition [35] was 100%. The Activity [36] was 7.8% and the Activity [37] was “Active”.
Compound COC(=O)c1ccc(Oc2ncccc2-c2ccnc(N)n2)cc1 has an MEC [4] of over 20 µM.
With COc1cc(Oc2ncccc2-c2ccncc2)cc(-c2nc(C)no2)c1 the MEC [4] was 0.42 µM.

— ChEMBL document CHEMBL5385867, “2-Phenoxy-3, 4'-bipyridine derivatives inhibit AURKB-dependent mitotic processes by disrupting its localization” (Eur J Med Chem, 2023)
